Active and inactive are the calls of the source. No cut-off for these calls is given here.

The species named for data set [1] is Rattus norvegicus. The data set is described as follows: Neuroprotective activity in Sprague-Dawley rat CGN cells assessed as protection against H2O2-induced cytotoxicity by measuring increase in cell viability at 5 to 100 uM pre-incubated for 24 hrs before H2O2 stimulation for 24 hrs by MTT assay. The class given is functional. On the technique in general: Formazan colour is commonly taken as a measure of viable cells.

Data set [2] can be described thus: Antioxidant activity in pH 7.4 PBS assessed as H2O2 oxidation at 50 uM incubated for 10 mins in presence of HRP and H2O2 by UV spectroscopy and HPLC analysis relative to control. In kind it is functional.
A short description of data set [3]: Antioxidant activity in pH 7.4 PBS assessed as reactivity against GSH at 50 uM incubated for 10 mins in presence of HRP and H2O2 in presence of 40 uM GSH by HPLC-DAD and HPLC-MS/MS analysis relative to control. In kind it is functional.
In data set [4] the test system is Brain. The data set can be described thus: Antioxidant activity in Sprague-Dawley rat brain homogenates assessed as inhibition of lipoperoxidation incubated for 40 mins by fluorescence based assay. The class given is functional, tissue-based.
Data set [5] is described as follows: Antioxidant activity in pH 7.4 PBS assessed as ABTS+ radical scavenger activity incubated under absence of light for 16 hrs. The class given is functional.
The nature of data set [6]: GSH reactivity in pH 7.4 PBS assessed as hydroxylated quercetin formation at 50 uM incubated for 10 mins in presence of HRP and H2O2 in presence of 40 uM GSH by HPLC-DAD and HPLC-MS/MS analysis relative to control. The note with it: buffer, pH 7.4, 10 min. The class given is physicochemical.
The nature of data set [7]: GSH reactivity in pH 7.4 PBS assessed as GSH-adduct formation at 50 uM incubated for 10 mins in presence of HRP and H2O2 in presence of 40 uM GSH by HPLC-DAD and HPLC-MS/MS analysis relative to control. As to conditions: buffer, pH 7.4, 10 min. In kind it is physicochemical.

As usually defined, the EC50 is the concentration that produces a half-maximal response. Take `COc1c(-c2ccc(O)c(O)c2)oc2cc(O)cc(O)c2c1=O` [3-O-METHYLQUERCETIN]: the result in data set [1] was inactive. The Activity in data set [2] came out at 0%. Further, the outcome in data set [3] was Active. The EC50 in data set [4] was determined as 74 µM; in data set [5] it was 45 µM.

Regarding `O=c1c(O[C@@H]2O[C@H](CO)[C@@H](O)[C@H](O)[C@H]2O)c(-c2ccc(O)c(O)c2)oc2cc(O)cc(O)c12` [ISOQUERCETIN], the outcome in data set [1] and in data set [3] was Active. Further, the Activity in data set [2] was 15%. The EC50 came to 94 µM in data set [4] and 152 µM in data set [5].

For the compound `O=c1cc(-c2ccc(O)c(O)c2)oc2cc(O)cc(O)c12` [LUTEOLIN], the result in data set [1] and in data set [3] was Active. Moreover, in data set [2], the Activity worked out at 25%. The EC50 worked out at 79 µM in data set [4] and 46 µM in data set [5].

With `O=c1c(O)c(-c2ccc(O)c(O)c2)oc2cc(O)cc(O)c12` [QUERCETIN], the result in data set [1] and in data set [3] was Active. Also, the Activity result in data set [6] was “Active”; in data set [2], 90%; in data set [7] it was “Active”. Further, the EC50 in data set [4] stood at 5.7 µM; in data set [5] it was 9.6 µM.

The record behind these values is ChEMBL document CHEMBL4390682, “Purification, structural elucidation, antioxidant capacity and neuroprotective potential of the main polyphenolic compounds contained in Achyrocline satureioides (Lam) D.C. (Compositae)” (Bioorg Med Chem, 2019).
